How the values were obtained:
[1] = system: neutrophil elastase (NE); assay: Bone marrow neutrophil elastase (NE) activity in lysates from mice of Example 1A; format: in vivo, C57BL/6 mice; conditions: vs vehicle treated control group
Protocol: Following euthanasia, bone marrow (from both femurs and tibias) were collected, lysed, and then snap frozen. The frozen tissue was stored at −80° C.
Bone Marrow Neutrophil Activity: The ability of INS1007 to reduce neutrophil activation in DSS-induced colitis in C57BL/6 mice was evaluated. The neutrophil activity of bone marrow extracts taken from the euthanized mice of Example 1A was observed.
All animals from Example 1A had both femurs and tibias removed and bone marrow was aspirated out with ice-cold using Roswell Park Memorial Institute (RPMI) buffer. Cell pellets were collected after red blood cell lysis and wash with PBS. […]
For neutrophil elastase (NE) activity assay, bone marrow cell lysates were added to 96-well black plate and incubated for 15 minutes in the presence of DMSO or NE inhibitor (Abcam, Cat #ab142154). […] The resulting fluorescence was measured at 350 nm excitation and 450 nm emission in a kinetic mode by reading every 5 minutes for up to 3 hours at 37° C. The fluorescence was read using a BioTek Synergy plate reader. The reaction rate was calculated with the initial slopes of the linear range and a standard curve for the natural mouse elastase amounts were plotted against their slopes. The net NE activity (in the unit of natural mouse elastase amount) by subtracting the NE inhibitor control wells from non-inhibited well were calculated based on the standard curve.

[2] = system: colitis induced by the adoptive transfer of sorted naïve T cells into RAG2−/− mice; assay: Adoptive T-Cell Transfer Colitis Model, Example 2 (survival, endoscopy, stool consistency, body weight); format: in vivo
Protocol: The efficacy of INS1007 in the treatment of colitis induced by the adoptive transfer of sorted naïve T cells into RAG2^−/− mice (“Adoptive T-Cell Transfer Colitis Model”) was evaluated. The Adoptive T-Cell Transfer Colitis Model is an immunological animal model of colitis that provides focused and detailed examination of T cell-mediated pathological mechanisms, and generally responds well to established clinical therapies such as anti-TNFα. The model is described in detail in D. V. Ostanin, et al., T cell transfer model of chronic colitis: concepts, considerations, and tricks of the trade. Am. J. Physiol. Gastrointest. Liver Physiol. 2009; 296(2): G135-46, which is hereby incorporated by reference in its entirety for all purposes.
Example 2 evaluated the effectiveness of INS1007 dosed at 0.3 mg/kg, 1.0 mg/kg, 3.0 mg/kg and 10 mg/kg in the Adoptive T-Cell Transfer Colitis Model. Vehicle (negative control) and an anti-p40 mAb antibody (positive control) were also evaluated.
Mice: Ninety-five (95) male RAG2^−/− mice (n=95) with an average starting body weight (±SEM) of 21.3±0.12 g were obtained from Taconic Biosciences (Germantown, N.Y.). Animals were acclimatized prior to study commencement. During this period, the animals were observed daily in order to reject any that presented in poor condition. Animals were fed with 5053 sterile rodent diet and water was provided ad libitum.
INS1007 Solutions: INS1007 was diluted with 0.5% Hydroxypropylmethylcellulose in Citrate buffer w/0.1% Tween 80 (pH 3.0). Solutions were stored at 4° C. INS1007 solutions were discarded after 3 days and fresh solutions were prepared.
Anti-p40 mAb solution: Anti-mouse IL-12 p40 (Clone: C17.8) obtained from BioXCell (Cat #: BE0051) was diluted with phosphate buffered saline. Solutions were stored at 4° C. Anti-mouse IL-12 p40 solutions were discarded after 7 days and fresh solutions were prepared.
Groups 1-2 were negative controls; groups 3-6 were treated with INS 1007 and Group 7 was treated with Anti-p40 mAb.
The study included two phases: a T-cell transfer colitis-induction period (T-cell engraftment in FIG. 14) and a treatment period (Veh/1007 TX in FIG. 14). Colitis was induced on Day 0 in 90 RAG2^−/− mice by IP injection (200 μL) of 0.5×10^6 CD44^−/CD62L^+ T-cells (in PBS) isolated and purified from C57Bl/6 […]. Donor cells were processed as follows. Whole spleens were excised from donor C57BL/6 mice and were immediately placed ice-cold PBS. The spleens were dissociated to yield a single cell suspension and the red blood cells were lysed. Spleens were then processed for CD4+ enrichment prior to CD44-CD62L^+ sorting using Miltenyi MACS columns.
Animals in Groups 1-6 were dosed via oral gavage (PO) twice daily (BID) from Days 14 to 41 with INS1007 Solution or vehicle, as indicated in Table 4. Animals in Group 7 were dosed via intraperitoneal (IP) injection once every third day (Q3D) from Day 14 to 39 with Anti-p40 mAb solution.
Animals were observed daily (weight morbidity, survival, presence of diarrhea and/or bloody stool) to assess differences among treatment groups and/or possible toxicity resulting from the treatments.
Each mouse, under isoflurane anesthesia, underwent video endoscopy on Days 14, 28, and 42 using a small animal endoscope (Karl Storz Endoskope, Germany), to assess colitis severity. During each endoscopic procedure, still images and video were recorded to evaluate the extent of colitis and the response to treatment. Colitis severity and Stool consistency were scored using the methods described in Examples 1 and 2. Following endoscopy on day 42, all animals from each treatment group were sacrificed. Following euthanasia, bone marrow (from both femurs and tibias) were collected, lysed, and then snap frozen. The frozen tissue was stored at −80° C.
Weight Loss: Weight loss calculated as a percentage of the starting weight on Day 0 was recorded in all treatment groups.

[3] = Day 28, INS1007 1 mg/kg (Group 4)
[4] = Day 28, INS1007 3 mg/kg (Group 5)
[5] = Day 28, INS1007 10 mg/kg (Group 6)
[6] = Day 42, INS1007 1 mg/kg (Group 4)
[7] = Day 42, INS1007 3 mg/kg (Group 5)
[8] = Day 42, INS1007 10 mg/kg (Group 6)

SMILES: Cn1c(=O)oc2ccc(-c3ccc(C[C@@H](C#N)NC(=O)[C@@H]4CNCCCO4)cc3)cc21 [INS1007, (2S)—N-{(1S)-1-cyano-2-[4-(3-methyl-2-oxo-2,3-dihydro-1,3-benzoxazol-5-yl)phenyl]ethyl}-1,4-oxazepane-2-carboxamide]
- bone marrow neutrophil activity (NE activity) ([1]; INS1007 1 mg/kg PO BID): significantly reduced
- bone marrow neutrophil activity (NE activity) ([1]; INS1007 10 mg/kg PO BID): significantly reduced
- reduction in mean endoscopy score as compared to vehicle control (Group 2) ([2]; Day 14, INS1007 3 mg/kg (Group 5)): 22.2%
- mean stool consistency score vs vehicle control (Group 2) [2, 3]: reductions
- reduction in mean endoscopy score as compared to vehicle control (Group 2) [2, 3]: 38.4%
- mean stool consistency score vs vehicle control (Group 2) [2, 4]: reductions
- reduction in mean endoscopy score as compared to vehicle control (Group 2) [2, 4]: 39.5%
- mean stool consistency score vs vehicle control (Group 2) [2, 5]: reductions
- reduction in mean endoscopy score as compared to vehicle control (Group 2) [2, 5]: 15.3%
- mean stool consistency score vs vehicle control (Group 2) [2, 6]: reductions
- reduction in mean endoscopy score as compared to vehicle control (Group 2) [2, 6]: 33.5%
- mean stool consistency score vs vehicle control (Group 2) [2, 7]: reductions
- reduction in mean endoscopy score as compared to vehicle control (Group 2) [2, 7]: 42.7%
- mean stool consistency score vs vehicle control (Group 2) [2, 8]: largest reductions
- reduction in mean endoscopy score as compared to vehicle control (Group 2) [2, 8]: 35.0%
- weight loss compared to vehicle control (Group 2), body weight carried forward ([2]; INS1007 3 mg/kg (Group 5), Days 0 to 42): reduced
- survival vs vehicle control ([2]; INS1007 3 mg/kg (Group 5), log-rank test): significantly improved
- survival ([2]; INS1007 3 mg/kg PO BID Day 14 to 41 (Group 5), Days 0 to 42, vehicle control 53.3%): 95.86%
